Reference: publication PMC11290450, “Isocyanides inhibit bacterial pathogens by covalent targeting of essential metabolic enzymes” (Chemical Science, 2024)
Converted amounts (≈) assume the structure as drawn.

How the values were obtained:
P. aeruginosa PAO1 = test system: T1, P. aeruginosa PAO1; experiment: microbe, parasite or virus in culture; design: broth microdilution MIC, visible growth (turbidity or pellet); details: Pseudomonas aeruginosa, PAO1, 20 h
T1 construct: PAO1
Method: (§1) faecalis, E. faecium. S. epidermidis, S. pyogenes and S. pneumonia strains were cultivated in brain heart infusion medium (BHB, 7.5 g/L brain infusion, 10 g/L heart infusion, 10 g/L casein peptone, 5 g/L NaCl, 2.5 g/L Na2HPO4, 2 g/L glucose). Cell culture Cell culture media and supplements were purchased from Merck. HeLa cells were cultured in Dulbecco’s Modified Eagle Medium (DMEM, high glucose, 4.5 g/L) supplemented with 10% fetal bovine serum (FBS) and 2 mM L-glutamine at 37 °C in a 5% CO2 atmosphere. Accutase (Merck) was used for cell detachment. Minimum inhibitory concentration (MIC) The minimum inhibitory concentration (MIC) was determined by using the broth microdilution assay. 1 µL of compound stock solution in DMSO was pipetted to the wells of row 1 of a sterile flat bottom 96-well plate containing 100 µL growth medium and thoroughly mixed. Subsequently, a 1:1 serial dilution was performed in the growth medium from row 1 to row 10. 50 µL of bacterial suspension (1:10,000 dilution of an overnight culture in the respective growth medium) was added to each well containing compound and the growth control (row 11). A sterile control containing only medium was included (row 12). The final volume was 100 µL per well. Plates were incubated for 20 h (37 °C, 200 rpm; […] ATCC700294: 5% CO2 atmosphere, 37 °C without shaking), and the dilution series were analyzed for microbial growth, indicated by turbidity and/or a pellet. The lowest concentration in the dilution series at which no growth of bacteria could be observed was defined as the MIC of the compound. MIC values were determined in technical triplicates and confirmed in two or three independent biological experiments. The [compound left out] library was screened once in technical triplicates. The MIC is reported as mean of technical triplicates. If the MIC varied between biological replicates, concentration ranges are indicated.

E. coli K12 [1] = test system: T2, E. coli K12; experiment: microbe, parasite or virus in culture; design: broth microdilution MIC, visible growth (turbidity or pellet); details: Escherichia coli, K12, 20 h
T2 construct: K12
Method: as §1

K. pneumoniae DSM 30104 = test system: T3, K. pneumoniae DSM 30104; experiment: microbe, parasite or virus in culture; design: broth microdilution MIC, visible growth (turbidity or pellet); details: Klebsiella pneumoniae, DSM30104, 20 h
T3 construct: DSM 30104
Method: as §1

S. epidermidis RP62 A = test system: T4, S. epidermidis RP62 A; experiment: microbe, parasite or virus in culture; design: broth microdilution MIC, visible growth (turbidity or pellet); details: Staphylococcus epidermidis, RP62A, 20 h
T4 construct: RP62A
Method: as §1

A. baumannii ATCC 19606 = test system: T5, A. baumannii ATCC 19606; experiment: microbe, parasite or virus in culture; design: broth microdilution MIC, visible growth (turbidity or pellet); details: Acinetobacter baumannii, ATCC19606, 20 h
T5 construct: ATCC 19606
Method: as §1

E. faecalis V583 = test system: T6, E. faecalis V583; experiment: microbe, parasite or virus in culture; design: broth microdilution MIC, visible growth (turbidity or pellet); details: Enterococcus faecalis, V583, 20 h
T6 construct: V583
Method: as §1

B. subtilis 168 = test system: T7, B. subtilis 168; experiment: microbe, parasite or virus in culture; design: broth microdilution MIC, visible growth (turbidity or pellet); details: Bacillus subtilis, 168, 20 h
T7 construct: 168
Method: as §1

L. monocytogenes EGD-e = test system: T8, L. monocytogenes EGD-e; experiment: microbe, parasite or virus in culture; design: broth microdilution MIC, visible growth (turbidity or pellet); details: Listeria monocytogenes, 20 h
T8 construct: EGD-e
Method: as §1

S. typhimurium LT2 = test system: T9, S. typhimurium LT2; experiment: microbe, parasite or virus in culture; design: broth microdilution MIC, visible growth (turbidity or pellet); details: Salmonella enterica, TYPHIMURIUM, 20 h
T9 construct: LT2
Method: as §1

S. pneumoniae DSM 20567 = test system: T10, S. pneumoniae DSM 20567; experiment: microbe, parasite or virus in culture; design: broth microdilution MIC, visible growth (turbidity or pellet); details: Streptococcus pneumoniae, DSM20567, 20 h
T10 construct: DSM 20567
Method: as §1

S. aureus NCTC 8325 = test system: T11, S. aureus NCTC 8325; experiment: microbe, parasite or virus in culture; design: broth microdilution MIC, visible growth (turbidity or pellet); details: Staphylococcus aureus, NCTC8325, 20 h
T11 construct: NCTC 8325
Method: as §1

A. baumannii 5075 = test system: T12, A. baumannii 5075; experiment: microbe, parasite or virus in culture; design: broth microdilution MIC, visible growth (turbidity or pellet); details: Acinetobacter baumannii, 5075, 20 h
T12 construct: AB5075
Method: as §1

E. faecium DSM17050 = test system: T13, E. faecium DSM17050; experiment: microbe, parasite or virus in culture; design: broth microdilution MIC, visible growth (turbidity or pellet); details: Enterococcus faecium, DSM17050, 20 h
T13 construct: DSM 17050
Method: as §1

E. coli UTI89 = test system: T14, E. coli UTI89; experiment: microbe, parasite or virus in culture; design: broth microdilution MIC, visible growth (turbidity or pellet); details: Escherichia coli, UTI89, 20 h
T14 construct: UTI89
Method: as §1

S. pyogenes ATCC 700294 = test system: T15, S. pyogenes ATCC 700294; experiment: microbe, parasite or virus in culture; design: broth microdilution MIC, visible growth (turbidity or pellet); details: Streptococcus pyogenes, ATCC700294, 20 h
T15 construct: ATCC 700294
Method: as §1

S. aureus USA300 LAC J2 = test system: T16, S. aureus USA300 LAC J2; experiment: microbe, parasite or virus in culture; design: broth microdilution MIC, visible growth (turbidity or pellet); details: Staphylococcus aureus, USA300, 20 h
T16 construct: USA300 LAC JE2
Method: as §1

cytochrome P450 1A2 [2] = target: T17, cytochrome P450 1A2 (Homo sapiens, UniProt P05177); experiment: CYP inhibition assay (Table S3); type: biochemical
T17 construct: gene CYP1A2
T17 sequence (P05177 2-516): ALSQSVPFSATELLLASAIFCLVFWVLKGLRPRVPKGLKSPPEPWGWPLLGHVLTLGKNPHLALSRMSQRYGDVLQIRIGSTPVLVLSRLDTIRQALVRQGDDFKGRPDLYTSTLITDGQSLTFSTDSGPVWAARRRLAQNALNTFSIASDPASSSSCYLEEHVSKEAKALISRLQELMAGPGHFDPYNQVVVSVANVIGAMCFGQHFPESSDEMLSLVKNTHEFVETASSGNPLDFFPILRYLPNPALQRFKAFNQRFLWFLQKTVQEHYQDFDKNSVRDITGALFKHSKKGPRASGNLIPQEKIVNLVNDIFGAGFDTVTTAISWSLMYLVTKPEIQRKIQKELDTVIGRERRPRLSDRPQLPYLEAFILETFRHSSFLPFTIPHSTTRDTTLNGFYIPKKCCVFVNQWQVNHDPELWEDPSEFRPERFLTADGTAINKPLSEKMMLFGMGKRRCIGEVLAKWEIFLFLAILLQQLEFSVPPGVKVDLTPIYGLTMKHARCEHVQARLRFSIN

cytochrome P450 3A4 [3] = target: T18, cytochrome P450 3A4 (Homo sapiens, UniProt P08684); experiment: CYP inhibition assay (Table S3); type: biochemical
T18 construct: gene CYP3A4
T18 sequence (P08684 2-503): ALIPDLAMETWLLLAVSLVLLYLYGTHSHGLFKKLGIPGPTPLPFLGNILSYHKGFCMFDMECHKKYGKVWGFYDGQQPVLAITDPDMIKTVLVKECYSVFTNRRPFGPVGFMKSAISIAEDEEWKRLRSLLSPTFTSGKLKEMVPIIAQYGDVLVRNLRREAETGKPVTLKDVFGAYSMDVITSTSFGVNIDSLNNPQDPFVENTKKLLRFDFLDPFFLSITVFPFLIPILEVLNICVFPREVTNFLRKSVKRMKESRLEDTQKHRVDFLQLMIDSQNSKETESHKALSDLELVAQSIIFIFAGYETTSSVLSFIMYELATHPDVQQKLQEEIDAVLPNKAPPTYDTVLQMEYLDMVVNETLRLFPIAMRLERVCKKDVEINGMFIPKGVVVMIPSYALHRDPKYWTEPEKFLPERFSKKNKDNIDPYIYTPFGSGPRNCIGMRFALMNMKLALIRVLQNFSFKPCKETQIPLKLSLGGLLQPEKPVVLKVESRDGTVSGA

E. coli K12 [4] = test system: T2, E. coli K12; experiment: microbe, parasite or virus in culture; design: broth microdilution MIC, visible growth (turbidity or pellet); details: Escherichia coli, K12, 20 h; remark: listed apart in the source
Method: (§2) faecalis, E. faecium. S. epidermidis, S. pyogenes and S. pneumonia strains were cultivated in brain heart infusion medium (BHB, 7.5 g/L brain infusion, 10 g/L heart infusion, 10 g/L casein peptone, 5 g/L NaCl, 2.5 g/L Na2HPO4, 2 g/L glucose). Cell culture Cell culture media and supplements were purchased from Merck. HeLa cells were cultured in Dulbecco’s Modified Eagle Medium (DMEM, high glucose, 4.5 g/L) supplemented with 10% fetal bovine serum (FBS) and 2 mM L-glutamine at 37 °C in a 5% CO2 atmosphere. Accutase (Merck) was used for cell detachment. Minimum inhibitory concentration (MIC) The minimum inhibitory concentration (MIC) was determined by using the broth microdilution assay. 1 µL of compound stock solution in DMSO was pipetted to the wells of row 1 of a sterile flat bottom 96-well plate containing 100 µL growth medium and thoroughly mixed. Subsequently, a 1:1 serial dilution was performed in the growth medium from row 1 to row 10. […] Plates were incubated for 20 h (37 °C, 200 rpm; for Streptococcus pneumoniae DSM30104 and Streptococcus pyogenes ATCC700294: 5% CO2 atmosphere, 37 °C without shaking), and the dilution series were analyzed for microbial growth, indicated by turbidity and/or a pellet. […] MIC values were determined in technical triplicates and confirmed in two or three independent biological experiments. […]

S. aureus USA300 Lac = test system: T19, S. aureus USA300 Lac; experiment: microbe, parasite or virus in culture; design: broth microdilution MIC, visible growth (turbidity or pellet); details: Staphylococcus aureus, USA300, 20 h
T19 construct: USA300 LAC
Method: as §2

cytochrome P450 2C9 [5] = target: T20, cytochrome P450 2C9 (Homo sapiens, UniProt P11712); experiment: CYP inhibition assay (Table S3); type: biochemical
T20 construct: gene CYP2C9
T20 sequence (P11712 whole entry): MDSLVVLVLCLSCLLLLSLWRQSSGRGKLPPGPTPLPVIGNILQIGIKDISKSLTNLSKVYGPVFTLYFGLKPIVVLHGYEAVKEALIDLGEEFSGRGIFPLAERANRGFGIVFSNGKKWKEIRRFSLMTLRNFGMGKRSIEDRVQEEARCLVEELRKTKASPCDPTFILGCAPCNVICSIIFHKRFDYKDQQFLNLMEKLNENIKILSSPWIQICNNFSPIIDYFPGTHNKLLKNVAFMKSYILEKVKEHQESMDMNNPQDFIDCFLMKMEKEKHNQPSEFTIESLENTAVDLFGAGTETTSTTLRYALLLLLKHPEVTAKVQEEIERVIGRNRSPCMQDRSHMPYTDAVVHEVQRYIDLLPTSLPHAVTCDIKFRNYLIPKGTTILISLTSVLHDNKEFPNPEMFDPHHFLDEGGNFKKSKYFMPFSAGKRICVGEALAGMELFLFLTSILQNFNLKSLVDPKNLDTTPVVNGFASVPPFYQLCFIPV

[6] = target: T21, glutamine–fructose-6-phosphate aminotransferase (GlmS) (Staphylococcus aureus, UniProt Q2FWA0); experiment: GDH-coupled glutaminase assay; intact protein MS (+[…] Da, truncated adduct); competitive gel-based IA-alkyne labeling; isoDTB-ABPP; type: biochemical
T21 construct: recombinant wild-type GlmS
T21 sequence (Q2FWA0 entry or part of it): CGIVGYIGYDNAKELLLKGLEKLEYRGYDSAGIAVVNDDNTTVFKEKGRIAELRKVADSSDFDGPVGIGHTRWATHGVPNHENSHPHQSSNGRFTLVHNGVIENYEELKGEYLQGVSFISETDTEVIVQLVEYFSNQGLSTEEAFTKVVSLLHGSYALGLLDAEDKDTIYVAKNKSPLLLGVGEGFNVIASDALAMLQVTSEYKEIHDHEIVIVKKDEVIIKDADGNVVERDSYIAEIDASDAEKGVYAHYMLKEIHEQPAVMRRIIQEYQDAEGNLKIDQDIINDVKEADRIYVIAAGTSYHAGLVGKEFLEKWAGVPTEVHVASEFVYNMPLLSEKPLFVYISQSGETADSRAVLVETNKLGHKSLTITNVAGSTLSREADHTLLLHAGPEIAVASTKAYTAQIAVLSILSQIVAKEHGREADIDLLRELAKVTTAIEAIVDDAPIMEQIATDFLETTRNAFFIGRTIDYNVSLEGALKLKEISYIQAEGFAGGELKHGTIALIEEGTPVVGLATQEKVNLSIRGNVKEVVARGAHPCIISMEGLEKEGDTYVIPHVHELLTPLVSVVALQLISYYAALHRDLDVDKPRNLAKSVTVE

cytochrome P450 3A4 [7] = target: T18, cytochrome P450 3A4; experiment: biochemical; design: CYP inhibition in human liver microsomes, conversion of isoform-specific substrates; details: substrate midazolam; liver microsomes
Method: (§3) To cover a broad range of structurally diverse compounds, we gathered commercially available primary, secondary, tertiary, vinyl and aromatic [compound left out] for antibacterial testing (Table S1 ^†). […] The minimum inhibitory concentration (MIC) of forty-two compounds was determined in Gram-positive Staphylococcus aureus and Gram-negative Escherichia coli cells up to 50 μM. […] The compound was tested against a panel of Gram-positive and Gram-negative pathogens. Although no antibiotic effects against Gram-negative strains were observed, Bacillus subtilis, Listeria monocytogenes, Staphylococcus epidermidis, and Streptococcus pneumoniae could be inhibited at low micromolar concentrations of I16 (Table S2 ^†). […] This was further corroborated by evaluation I16 in four different human cytochrome P450 enzymes (CYPs).

cytochrome P450 1A2 [8] = target: T17, cytochrome P450 1A2; experiment: biochemical; design: CYP inhibition in human liver microsomes, conversion of isoform-specific substrates; details: substrate phenacetin; liver microsomes
Method: as §3

cytochrome P450 2C9 [9] = target: T20, cytochrome P450 2C9; experiment: biochemical; design: CYP inhibition in human liver microsomes, conversion of isoform-specific substrates; details: substrate diclofenac; liver microsomes
Method: as §3

cytochrome P450 2D6 [10] = target: T22, cytochrome P450 2D6 (Homo sapiens, UniProt P10635); experiment: biochemical; design: CYP inhibition in human liver microsomes, conversion of isoform-specific substrates; details: substrate dextromethorphan; liver microsomes
T22 construct: gene CYP2D6
T22 sequence (P10635 whole entry, canonical isoform): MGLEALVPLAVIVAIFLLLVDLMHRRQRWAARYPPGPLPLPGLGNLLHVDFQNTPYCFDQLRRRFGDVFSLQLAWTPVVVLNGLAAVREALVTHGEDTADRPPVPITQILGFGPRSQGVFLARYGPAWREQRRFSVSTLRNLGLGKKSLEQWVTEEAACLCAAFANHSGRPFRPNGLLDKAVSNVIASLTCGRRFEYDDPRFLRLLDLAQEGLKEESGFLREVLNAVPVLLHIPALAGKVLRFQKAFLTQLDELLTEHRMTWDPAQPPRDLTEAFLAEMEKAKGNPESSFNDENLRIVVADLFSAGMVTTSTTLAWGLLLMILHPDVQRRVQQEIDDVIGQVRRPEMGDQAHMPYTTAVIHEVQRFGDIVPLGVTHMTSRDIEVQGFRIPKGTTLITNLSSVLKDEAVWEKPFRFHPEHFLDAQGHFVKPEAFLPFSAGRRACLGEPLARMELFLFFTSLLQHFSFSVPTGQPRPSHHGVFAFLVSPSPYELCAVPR
Method: as §3

cytochrome P450 2D6 [11] = target: T22, cytochrome P450 2D6; experiment: CYP inhibition assay (Table S3); type: biochemical
[12] = target: T21, glutamine–fructose-6-phosphate aminotransferase (GlmS); experiment: GDH-coupled glutaminase assay (turnover reduced to about […] at […]); type: biochemical; details: read-out: % residual turnover at 100 μM

In the case of `[C-]#[N+]C(c1ccc(F)cc1Cl)S(=O)(=O)c1ccc(C)cc1` (stereo not shown) [I16], the MIC (P. aeruginosa PAO1) is reported as greater than 100 µM, the MIC (E. coli K12 [1]) is reported as greater than 100 µM and the MIC (K. pneumoniae DSM 30104) is reported as greater than 100 µM. For the same molecule, the MIC (S. epidermidis RP62 A) was 1 µM (≈ 0.324 µg/mL), the MIC (A. baumannii ATCC 19606) was greater than 100 µM and the MIC (E. faecalis V583) was greater than 100 µM. It also gave an MIC (B. subtilis 168) of 12.5 µM (≈ 4.05 µg/mL), an MIC (L. monocytogenes EGD-e) of 1 µM (≈ 0.324 µg/mL) and an MIC (S. typhimurium LT2) greater than 100 µM. The MIC (S. pneumoniae DSM 20567) was 1.56 µM (≈ 0.505 µg/mL), the MIC (S. aureus NCTC 8325) was 0.78 to 1.56 µM (≈ 0.253 to 0.505 µg/mL) and the MIC (A. baumannii 5075) was greater than 100 µM. The MIC (E. faecium DSM17050) was greater than 100 µM, the MIC (E. coli UTI89) was greater than 100 µM and the MIC (S. pyogenes ATCC 700294) was greater than 100 µM. The MIC (S. aureus USA300 LAC J2) was 1.56 µM (≈ 0.505 µg/mL), the “CYP inhibition assay (Table S3)” value (cytochrome P450 1A2 [2]) was “I16 inhibited all tested CYP isoforms (2C9, 2D6, 1A2, and 3A4) at nanomolar concentrations” and the “CYP inhibition assay (Table S3)” value (cytochrome P450 3A4 [3]) was “I16 inhibited all tested CYP isoforms (2C9, 2D6, 1A2, and 3A4) at nanomolar concentrations”. For the same molecule, the MIC (E. coli K12 [4]) was greater than 50 µM, the MIC (S. aureus USA300 Lac) was 1.56 µM (≈ 0.505 µg/mL) and the “CYP inhibition assay (Table S3)” value (cytochrome P450 2C9 [5]) was “I16 inhibited all tested CYP isoforms (2C9, 2D6, 1A2, and 3A4) at nanomolar concentrations”. For the same molecule, the “GDH-coupled glutaminase assay; intact protein MS (+27.5 Da, truncated adduct); c” value [6] was “glutamate release rate decreased concentration-dependently by I16, corroborating its interaction with the active site cysteine”, the IC50 (cytochrome P450 3A4 [7]) was 0.0261 ± 0.008 µM and the IC50 (cytochrome P450 1A2 [8]) was 0.0608 ± 0.017 µM. For the same molecule, the IC50 (cytochrome P450 2C9 [9]) was 0.144 ± 0.053 µM, the IC50 (cytochrome P450 2D6 [10]) was 0.0593 ± 0.02 µM and the “CYP inhibition assay (Table S3)” value (cytochrome P450 2D6 [11]) was “I16 inhibited all tested CYP isoforms (2C9, 2D6, 1A2, and 3A4) at nanomolar concentrations”.

`NC(=O)CI` [IA, iodoacetamide] was tested, and the remaining activity at 100 µM [12] was roughly 35%.
